Measurements: patent US9611254B2, “Triazole compounds and their use as gamma secretase modulators” (Acturum Life Science AB, priority 2013, dated 2017)

Experiments:
Aβ42 [1] = test: HEK assay: Aβ42 secreted by HEK cells stably expressing APPswe (Meso Scale electrochemiluminescence); type: cell-based, Human; conditions: 4-6 hours incubation with compound, Aβ42 in cell medium; for IC50: Homo sapiens, HEK293, HEK cell line stably expressing APPswe, read-out: pIC50 Aβ42 HEK assay (converted)
Description: Compounds were diluted in 100% DMSO and stored at […] prior to use. Human Embryonic Kidney (HEK) cell line stably expressing APP with the Swedish mutation (APPswe) was cultured using Dulbecco's Modified Eagles medium (DMEM) supplied with […] glucose, Na-pyruvate and GlutaMAX, 10% Foetal bovine serum, 100 U/mL penicillin-streptomycin (PEST), 1× non-essential amino acids (NEAA), […] Hepes, 100 μg/mL Zeocine. Cells at about 80% confluence were washed with PBS, detached from culture flasks using 1× Trypsin/EDTA diluted in PBS, re-suspended in cell media and plated in 384-well poly-d-lysine coated cell culture plates at about 10000-15000 cells/well, in 25 μL cell media. Optionally, cryo-preserved cells (frozen and stored at −140° C. in 90% cell media and 10% DMSO) were thawed, washed and plated as above. Next the cells were incubated for 15-24 h at 37° C. and 5% CO2, after which cell medium was changed. Fresh medium containing test compound diluted ×200 from prepared compound plate was added to the cells before further incubation for 4-6 hours at 37° C. and 5% CO2. After incubation with test compound the amount of Aβ peptides, including Aβ42, Aβ40, Aβ39, Aβ38 and Aβ37, secreted to cell medium was analyzed using the electrochemiluminescence assay technology from Meso Scale Discovery Technology, in combination with specific antibodies raised against the different Aβ peptides. Potential cytotoxic effects of the compounds were assayed by measuring the ATP content (ViaLight) from cell lysate.

Aβ42 [2] = test: PCN assay: Aβ42 secreted by mouse primary cortical neuronal cells (ELISA); type: cell-based; conditions: primary cortical neuronal cells from 16-day mouse embryos, 16-20 hours incubation with compound, Aβ42 in cell medium; for IC50: Mus musculus, read-out: pIC50 Aβ42 PCN assay (converted)
Description: Compounds were diluted in 100% DMSO and stored at […] prior to use. Primary cortical neuronal cells (PCN) were isolated from 16-day mouse embryos and cultured in Ham's F12 media containing 10% Foetal bovine serum, 10 mM Hepes, 2 mM L-glutamine and 100 U/mL Penicillin-Streptomycin. 150000-250000 cells/well, in 200 μL cell media were seeded onto 96-well poly-D-Lysine coated plates. After incubation at 37° C., 5% CO2 for five days, the media was exchanged for fresh medium containing test compound diluted ×100, before further incubation for 16-20 hours at 37° C. and 5% CO2. After incubation with test compound the amount of Aβ42 peptides secreted to cell medium was analyzed using the solid phase sandwich Enzyme-Linked-Immuno-Sorbent Assay (ELISA)-kit from Invitrogen for detection of mouse βAmyloid 1-42. Potential cytotoxic effects of the compounds were assayed by measuring the ATP content (Via Light) from cell lysate.

| SMILES | IC50 (Aβ42 [1]) | pIC50 Aβ42 HEK assay (Aβ42 [1]; HEK cell line stably expressing APPswe) | IC50 (Aβ42 [2]) | pIC50 Aβ42 PCN assay (Aβ42 [2]) |
| --- | --- | --- | --- | --- |
| COc1cc(Nc2nc(N3CC(c4ccccc4)C3)n(CC(C)(C)O)n2)ccc1-n1cnc(C)c1 [Example 1, 1-(3-(3-Methoxy-4-(4-methyl-1H-imidazol-1-yl)phenylamino)-5-(3-phenylazetidin-1-yl)-1H-1,2,4-triazol-1-yl)-2-methylpropan-2-ol] | 0.0398 µM | – | 0.0158 µM | – |
| COc1cc(Nc2nc(N3CC(F)(c4ccccc4)C3)n(CC(C)(C)O)n2)ccc1-n1cnc(C)c1 [Example 2, 1-(5-(3-Fluoro-3-phenylazetidin-1-yl)-3-(3-methoxy-4-(4-methyl-1H-imidazol-1-yl)phenylamino)-1H-1,2,4-triazol-1-yl)-2-methylpropan-2-ol] | 0.0501 µM | – | 0.0316 µM | – |
| COc1cc(Nc2nc(N3CC(c4ccccc4)C3)n(C)n2)ccc1-n1cnc(C)c1 [Example 3, N-(3-Methoxy-4-(4-methyl-1H-imidazol-1-yl)phenyl)-1-methyl-5-(3-phenylazetidin-1-yl)-1H-1,2,4-triazol-3-amine] | 0.0398 µM | – | 0.0794 µM | – |
| COc1cc(Nc2nc(N3CCC3c3ccccc3)n(C)n2)ccc1-n1cnc(C)c1 (stereo not drawn) [Example 4, N-(3-Methoxy-4-(4-methyl-1H-imidazol-1-yl)phenyl)-1-methyl-5-(2-phenylazetidin-1-yl)-1H-1,2,4-triazol-3-amine] | 0.0251 µM | – | 0.0251 µM | – |
| COc1cc(Nc2nc(N3CC4(CCC4)C3)n(CC(C)(C)O)n2)ccc1-n1cnc(C)c1 [Example 8, 1-(3-(3-Methoxy-4-(4-methyl-1H-imidazol-1-yl)phenylamino)-5-(2-azaspiro[3.3]heptan-2-yl)-1H-1,2,4-triazol-1-yl)-2-methylpropan-2-ol] | 0.0501 µM | – | 0.0631 µM | – |
| COc1cc(Nc2nc(N3CCC34CCCC4)n(CC(C)(C)O)n2)ccc1-n1cnc(C)c1 [Example 9, 1-(3-(3-Methoxy-4-(4-methyl-1H-imidazol-1-yl)phenylamino)-5-(1-azaspiro[3.4]octan-1-yl)-1H-1,2,4-triazol-1-yl)-2-methylpropan-2-ol] | 0.0316 µM | – | 0.0316 µM | – |

Second part, led by results:

| IC50 (Aβ42 [1]) | pIC50 Aβ42 HEK assay (Aβ42 [1]; HEK cell line stably expressing APPswe) | SMILES | IC50 (Aβ42 [2]) | pIC50 Aβ42 PCN assay (Aβ42 [2]) |
| --- | --- | --- | --- | --- |
| 0.0251 µM | – | COc1cc(Nc2nc(N3CCC3c3ccccc3)n(CC(C)(C)O)n2)ccc1-n1cnc(C)c1 (racemic) [Example 5, 1-(3-(3-Methoxy-4-(4-methyl-1H-imidazol-1-yl)phenylamino)-5-(2-phenylazetidin-1-yl)-1H-1,2,4-triazol-1-yl)-2-methylpropan-2-ol] | 0.0316 µM | – |
| 0.0251 µM | – | COc1cc(Nc2nc(N3CCC3c3ccccc3)n(CC(C)(C)O)n2)ccc1-n1cnc(C)c1 (single isomer, unassigned; isomer 1) [Example 6, 1-(3-(3-Methoxy-4-(4-methyl-1H-imidazol-1-yl)phenylamino)-5-(2-phenylazetidin-1-yl)-1H-1,2,4-triazol-1-yl)-2-methylpropan-2-ol, isomer 1] | – | 7.2 |
| – | 7.8 | COc1cc(Nc2nc(N3CCC3c3ccccc3)n(CC(C)(C)O)n2)ccc1-n1cnc(C)c1 (single isomer, unassigned; isomer 2) [Example 7, 1-(3-(3-Methoxy-4-(4-methyl-1H-imidazol-1-yl)phenylamino)-5-(2-phenylazetidin-1-yl)-1H-1,2,4-triazol-1-yl)-2-methylpropan-2-ol, isomer 2] | – | 7.7 |
